Assay results reported in BigSolDB 2.1.

CC(=O)Oc1ccccc1C(=O)O
solubility (mole fraction)
Settings | 283.15 K | 288.15 K | 293.15 K | 298.15 K | 303.15 K | 308.15 K | 313.15 K | 318.15 K | 323.15 K
in acetone | 0.0629 | 0.0733 | 0.0821 | 0.0931 | 0.105 | 0.113 | 0.126 | 0.138 | 0.157
in ethanol | 0.0334 | 0.0426 | 0.0515 | 0.0614 | 0.074 | 0.0876 | 0.102 | 0.122 | 0.141
in ethyl acetate | 0.0267 | 0.0314 | 0.0361 | 0.0413 | 0.0471 | 0.0543 | 0.0651 | 0.0738 | 0.0849
in n-propanol | 0.0254 | 0.0316 | 0.037 | 0.0473 | 0.0576 | 0.0687 | 0.0816 | 0.0971 | 0.118
